# US10864216B2, “Phenothiazine diaminium salts and their use” (WisTa Laboratories Ltd., priority 2011, dated 2020)
# Key:
# [1] = test system: rat, stomach (non glandular); experiment: Gastric irritation: 28-day rat study with LMT.2MsOH; type: in vivo; set-up: key to Gastritis, grade 2 (slight): incidence / Gastritis, grade 3 (moderate): incidence / Gastritis, total incidence / Inflammatory cell infiltration, grade 1 (minimal): incidence / Inflammatory cell infiltration, grade 2 (slight): incidence / Gastritis, grade 1 (minimal): incidence: “—” = finding not present; 1 = minimal; 2 = slight; 3 = moderate; 4 = moderately severe; 5 = severe; conditions: for Gastritis, total incidence / Gastritis, grade 1 (minimal): incidence / Gastritis, grade 2 (slight): incidence / Gastritis, grade 3 (moderate): incidence / Inflammatory cell infiltration, grade 1 (minimal): incidence / Inflammatory cell infiltration, grade 2 (slight): incidence: 90 mg/kg/day, 28-day, 10 examined; for Gastritis, total incidence: number of animals; for Gastritis, grade 1 (minimal): incidence / Gastritis, grade 2 (slight): incidence / Gastritis, grade 3 (moderate): incidence / Inflammatory cell infiltration, grade 1 (minimal): incidence / Inflammatory cell infiltration, grade 2 (slight): incidence: terminal kill, cell = number of animals
# Description: Study (28-day rat study with LMT.2MsOH): Incidence and severity of selected microscopic findings in sternum, liver, spleen and stomach from terminal animals
# [2] = target: T1, truncated tau (amino acids 297-391) in solution binding to solid-phase bound truncated tau (residues 297-390) (Homo sapiens, UniProt P10636); experiment: Solid phase assay for tau aggregation (tau-tau binding, B50); conditions: concentration at which tau-tau binding is decreased by 50%; mean ± SE
# T1 construct: made in house
# T1 sequence (P10636 614-708): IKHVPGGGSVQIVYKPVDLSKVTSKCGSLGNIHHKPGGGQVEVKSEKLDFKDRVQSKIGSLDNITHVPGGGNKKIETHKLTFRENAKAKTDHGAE
# T1 sequence (P10636 614-707): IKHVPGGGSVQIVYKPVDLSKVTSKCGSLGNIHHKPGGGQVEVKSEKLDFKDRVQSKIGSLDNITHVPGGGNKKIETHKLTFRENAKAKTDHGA
# Description: The tau-tau aggregation assay uses purified recombinant tau fragments in a solid-phase immunoassay. Methods are described in detail in e.g. WO 96/30766. Briefly, the assay measures the binding of truncated tau (amino acids 297-391) in solution to solid-phase bound truncated tau (residues 297-390). Binding of the former is detected with the antibody mAb 423, which specifically recognises peptides containing a C-terminal Glu-391 residue. The Tau complex formed in vitro is similar to the aggregated complex that forms in Alzheimer's disease as a consequence of the stability of the pathological Tau-Tau binding interaction through a 94/95-amino acid repeat domain (residues 297-390), found in the proteolytically stable core of the paired helical filament.
# The B50 value (expressed as mean±SE) is determined as the concentration of compound at which tau-tau binding is decreased by 50%.
# [3] = Solubility of LMT salts in aqueous HCl solutions at 37° C.; type: physicochemical; conditions: aqueous HCl solution pH 2.00 (21.4° C.); lower limit complete dissolution, upper limit saturation
# Description: Two aqueous solutions (pH 2.00 and 3.01 at 21.4° C.) were prepared by carefully adding HCl (5 M) to deionised water. In each experiment a 5 ml aliquot of one of the aforementioned solutions was heated to 37° C. […] This step was repeated until no further dissolution took place.
# [4] = Pharmacokinetics: plasma concentration of the MT moiety in pig; type: in vivo; conditions: oral doses 2 and 15 mg/kg
# rats = experiment: Studies on the hemopoietic system (methemoglobinemia), rat; type: in vivo
# [5] = target: full-length human tau protein (htau40) and truncated tau (295-390, dGA) in 3T6 mouse cells (Homo sapiens, UniProt P10636); experiment: Cell-based tau aggregation assay
# minipigs = experiment: Studies on the hemopoietic system (methemoglobinemia), minipig; type: in vivo
# Description: Studies on the hemopoietic system were performed in rat, monkey and minipig.
# [6] = Dynamic vapour sorption (DVS); type: physicochemical; conditions: crystalline, 25° C., relative humidity range between 0% and 70%
# Description: FIGS. 15a and 15b show the dynamic vapour sorption (DVS) curve for crystalline LMT.2MsOH measured at 25° C. with 5%/h scanning rate. The horizontal dashed lines indicate steps of water uptake of one equivalent. […] Above this r.h., the water uptake increased rapidly, and the sample ultimately deliquesced. Upon drying, the water content decreased again to approximately 4 equiv. at 50% r.h.
# Projekt Messtechnik SPS 11-100n water vapor sorption analyzer. The samples were placed in aluminum crucibles on top of a microbalance and were equilibrated at 25° C. and 50% r.h. before starting a pre-defined humidity program at 25° C. (50-0-95-50% r.h., scanning with Δ r.h.=5% h^−1 and with ‘isohumid’ equilibration periods at the extreme values).
# [7] = pH dependence of solubility of LMT.2MsOH in buffered aqueous solutions at 25° C.; type: physicochemical; conditions: aqueous buffer, thermodynamic from solid
# Description: In related experiments three buffered stock solutions were prepared (pH 2, pH 3, and pH 7) as follows: A solution of (0.2 M) potassium chloride (KCl) (0.745 g in 50 mL of deionised water) was initially prepared. From this solution 50 mL was taken and diluted with approximately 80 mL of deionised water. A (0.2 M) hydrochloric acid (HCl) solution was then used to adjust the pH to 2, before further dilution with deionised water to make up to 200 mL. A final pH of 2.00 at 21.6° C. was recorded. A solution of (0.1 M) potassium hydrogen phthalate (2.042 g in 100 mL of deionised water) was initially prepared. From this solution 100 mL was taken and diluted with approximately 50 mL of deionised water. A 0.2 M HCl solution was then used to adjust the pH to 3, before further dilution with deionised water to make up to 200 mL. A final pH of 2.99 at 21.7° C. was recorded. A solution of (0.1 M) potassium phosphate monobasic (KH2PO4) (1.370 g in 100 mL of deionised water) was initially prepared. From this solution 100 mL was taken and diluted with approximately 80 mL of deionised water. A 0.5 M sodium hydroxide (NaOH) solution was then used to adjust the pH to 7, before further dilution with deionised water to make up to 200 mL. A final pH of 7.07 at 22° C. was recorded. […] This vial was placed into a water bath set at 25° C. To the solution was added LMT.2MsOH in 1-1.5 g portions. After each addition, a 10 minutes stir time was allowed to ensure maximum opportunity for dissolution. The homogeneity of the mixture was judged by eye. If solid was still present, after the stir time, as judged by visual inspection, the saturation point was judged to have been reached. The viscosity of the resulting mixtures precluded adequate isolation of the excess solid, therefore it was not possible to determine exact solubility values.
# female Wistar rats = experiment: 14 day oral administration to rats: toxicology and neutrophil response; type: in vivo
# Description: Table: Neutrophil response in rats following 14 day oral administration of different salt forms of LMT.
smiles,measurement,setting,value
"CN(C)c1ccc2c(c1)Sc1cc(N(C)C)ccc1N2.CS(=O)(=O)O.CS(=O)(=O)O [LMT.2MsOH, N,N,N′,N′-tetramethyl-10H-phenothiazine-3,7-diaminium bis(methanesulfonate)]",Gastric irritation compared with LMT.2HBr,[1]; 28-day rat studies,less gastric irritation
same,"Gastritis, total incidence",[1]; female rats,3
same,"Gastritis, grade 1 (minimal): incidence",[1]; female rats,—
same,"Gastritis, grade 2 (slight): incidence",[1]; female rats,2
same,"Gastritis, grade 3 (moderate): incidence",[1]; female rats,1
same,"Inflammatory cell infiltration, grade 1 (minimal): incidence",[1]; female rats,4
same,"Inflammatory cell infiltration, grade 2 (slight): incidence",[1]; female rats,1
same,"Gastritis, total incidence",[1]; male rats,2
same,"Gastritis, grade 1 (minimal): incidence",[1]; male rats,—
same,"Gastritis, grade 2 (slight): incidence",[1]; male rats,2
same,"Gastritis, grade 3 (moderate): incidence",[1]; male rats,—
same,"Inflammatory cell infiltration, grade 1 (minimal): incidence",[1]; male rats,4
same,"Inflammatory cell infiltration, grade 2 (slight): incidence",[1]; male rats,—
same,IC50,[2],238 ± 74.2 µM
same,Solubility g/5 ml (37° C.),[3],8.825-9.943 g/5 ml
same,"Cmax of MT moiety in plasma, fold greater than that for LMT.2HCl or LMT.2HBr",[4],more than 2 fold
same,Tmax,[4]; plasma,1 h
same,Lowest dose at which methemoglobinemia was observed,rats,30 mg MT/kg/day
same,EC50,[5],0.19 ± 0.04 µM
same,therapeutic index greater compared with MTC,[5],63%
same,"THx, therapeutic index (THx = LD50/EC50)",[5]; LD50/EC50,179
same,Lowest dose at which methemoglobinemia was observed,minipigs,10 mg MT/kg/day
same,Methemoglobinemia,"minipigs; 3 mg MT/kg/day, first 28-days of dosing in the 9-month study",no indications of methemoglobinemia
same,Weight change in dynamic vapour sorption,[6],less than 0.5%
same,solubility at 10 min,"[7]; buffered aqueous solution pH 2.00, 25° C.",1600 to 1770 mg/mL
same,solubility at 10 min,"[7]; buffered aqueous solution pH 2.99, 25° C.",1980 to 2090 mg/mL
same,solubility at 10 min,"[7]; buffered aqueous solution pH 7.07, 25° C.",2030 to 2110 mg/mL
same,Neutropaenia in prepared blood smears (mature neutrophils),female Wistar rats; 14 days,no decrease
same,Neutrophils (total neutrophils as percentage of total white cells),"female Wistar rats; 14 days oral, 95 mg MT/kg/day Days 1-10, 60 mg MT/kg/day Days 11-14",18.30%
same,Dose-related deaths,"female Wistar rats; 14 days oral, animal numbers per group of 8 rats",0/8
same,Early neutrophils (frequency of presence of immature neutrophils per animal group),"female Wistar rats; 14 days oral, animals per group of 8",1/8
